Results reported in patent US5472951A, “Stabilizer for phospholipid vesicles” (Chiba Flour Milling Co., Ltd., priority 1992, dated 1995).

Key:
Format in all cases: physicochemical
[1] = viscosity of vesicle dispersion on addition of calcium ion (rotating viscometer); details: 5 mM calcium chloride
Method: The stability of the vesicles was evaluated as below. The precipitate of the vesicles prepared by centrifuge was dispersed again into saline by a vortex mixer. To this sample, calcium chloride (as calcium ion) was added to be 5 mM, and the viscosity of the dispersion was measured with a rotating viscometer (Vismetron VS-AK). The viscosity of 5 cp was not changed by addition of the calcium ion.
To this dispersion, calcium chloride (as calcium ion) was added to be 5 mM, and the viscosity of the dispersion was measured with a rotating viscometer (Vismetron VS-AK).
To this dispersion, calcium chloride (as calcium ion) was added to be 5 mM, and the viscosity of the dispersion was measured with a rotating viscometer (Vismetron VS-AK). The viscosity of 5 cp was not changed by addition of the calcium ion. On the contrary, the dispersion of the vesicles prepared from powdery lipid mixture not containing DACOA (DPPC:cholesterol:distearylphosphatidic acid=10:9:0.9 in molar ratio) aggregated immediately on addition of calcium ion because of negative charge on the surface of the vesicle, causing the viscosity rise up to 11 cp.
The stability of the dispersion of the DOLG-modified vesicles having adjusted particle diameters was evaluated by addition of 5 mM calcium chloride and observing the viscosity change. The viscosity was measured at 37° C. by a rotating viscometer. […] On the contrary, a dispersion of unmodified vesicles prepared from a powdery lipid mixture containing no DOLG (DPPC:cholesterol:stearic acid=7:7:2 in molar ratio) caused immediate aggregation of the vesicles on addition of calcium ion in the same manner as above because of the negative charge on the surface of the vesicle, and the viscosity increased up to 11 cp. Accordingly, the sufficient effect of the DOLG, a vesicle stabilizer of the present invention, was confirmed in inhibiting the aggregation of vesicles by calcium ion.

[2] = dispersion stability: turbidity increase at 500 nm, standing at 25 °C for 3 days
[3] = particle diameter of modified vesicles; details: for average diameter: ultrasonicator (Example 5 series)
[4] = turbidity increase, standing at 4 °C for 24 hours; details: for turbidity increase rate relative to unmodified DPPC vesicle dispersion (100%): Table 3 / Example 11 series
[5] = introduction ratio into the vesicle (phenol-sulfuric acid method); details: 2 mol % modifier; for introduction ratio: 4 °C, 24 hours
Method: The ratio of introduction of the stabilizer into the vesicles is determined by treating the dispersion of the vesicles by gel filtration or ultracentrifuge to remove the superfluous stabilizer which has not been introduced into the vesicles, and quantitatively determining saccharide in respective fractions by a phenol-sulfuric acid method. The stabilizer of the present invention, when employed in an amount of from 2 to 10 mol %, is introduced into the vesicles in a ratio of 90% or more.
The stability of the vesicle dispersion which had been passed through the 0.05 μm filter was evaluated by measuring the change of absorbance (turbidity) at 500 nm with time on standing at room temperature by means of a UV-visible light spectrophotometer.
2.4 mg of DOMG prepared in the same manner as in Example 11 was dissolved in 1 ml of chloroform. This solution was mixed with a solution of 100 mg of DPPC in 5 ml of chloroform, thereby DOMG being 2 mol % of DPPC. The solution mixture was evaporated by means of an evaporator to form a thin film on the inside wall of an eggplant-shape flask. Then 10 ml of pure water was added thereto so as to obtain a concentration of 1.0% by weight of the vesicles. The mixture was stirred with glass beads by means of a vortex mixer, and subsequently treated by an extruder to prepare a dispersion of DOMG-modified DPPC vesicles having controlled diameters of particles. A portion of the resulting dispersion was diluted to a fivefold volume with pure water to prepare a dispersion having vesicle concentration of 0.2% by weight.
The two dispersions of the DOMG-modified vesicles having concentrations of 1.0% by weight and 0.2% by weight were left standing at 4° C. for 24 hours, and were ultracentrifuged (300000 G, 60 minutes). The free DOMG in the supernatant was determined by a phenol-sulfuric acid method, and therefrom the ratio of introduction DOMG to the vesicles was calculated.
As the results, the introduction ratios were 94.3%, and 77.0% respectively at the vesicle concentrations of 1.0% by weight and 0.2% by weight. The results are shown in Table 4 together with the results of Comparative Examples 6 and 7 described later in which an oligosaccharide derivative was employed.

[6] = Table 1 / Example 5 series, about 5 mol % modifier
[7] = Table 2 / Example 8 series, 5 mol % modifier
[8] = DPPC vesicle, 5 mol % modifier (Example 8 series)
[9] = DPPC vesicle, about 5 mol % modifier
[10] = mixed lipid vesicles, 0.2 μm filter by extruder

Row | Compound | viscosity change on addition of calcium ion (in words) [1] | turbidity increase rate relative to unmodified DPPC vesicle dispersion (100%) [2, 6] | turbidity increase rate relative to unmodified DPPC vesicle dispersion (100%) [2, 7] | average particle diameter [3, 8] | average diameter [3, 9] | turbidity increase rate relative to unmodified DPPC vesicle dispersion (100%) ([4]; 5 mol % modifier, 24 hours) | introduction ratio ([5]; vesicle concentration 0.2 wt %) | introduction ratio ([5]; vesicle concentration 1.0 wt %) | also measured
1 | dioctadecyl lactosyl glycerol [DOLG] | without viscosity increase |  |  |  |  |  |  |  | viscosity of the dispersion with calcium ion ([1]; 37 °C, shear rate 1.15 sec^-1): 5 cp
2 | Maltopentaose monopalmitate [MPMP, reference compound] |  | 12.7% | 11.2% | 34±12 nm | 34±12 nm | 13.5% | 48.5% | 75.8% | introduction ratio in comparison with DOMG (in words) [5]: low in comparison with that of DOMG
3 | CCCCCCCCCCCCCCCCNC(=O)[C@H](O)[C@@H](O)[C@H](O[C@H]1O[C@H](CO)[C@@H](O)[C@H](O)[C@H]1O)[C@H](O)CO [MCA, maltose cetyl amide] |  |  | 47.8% | 41±19 nm |  |  |  |  | increase of the turbidity depending on amount of modifier (order) ([2]; 5-25 mol %): 5 mol %>10 mol %>15 mol %>20 mol % ≤25 mol %; turbidity increase rate relative to unmodified DPPC vesicle dispersion (100%) ([2]; Table 2 / Example 8 series, 10 mol % modifier): 32.5%; turbidity increase rate relative to unmodified DPPC vesicle dispersion (100%) ([2]; Table 2 / Example 8 series, 15 mol % modifier): 19.9%; turbidity increase rate relative to unmodified DPPC vesicle dispersion (100%) ([2]; Table 2 / Example 8 series, 20 mol % modifier): 15.6%; turbidity increase rate relative to unmodified DPPC vesicle dispersion (100%) ([2]; Table 2 / Example 8 series, 25 mol % modifier): 17.2%; average particle diameter ([3]; DPPC vesicle, 10 mol % modifier (Example 8 series)): 35±13 nm; average particle diameter (in words) ([3]; DPPC vesicle, 15 mol % (MCA also 25 mol %) modifier): Nearly the same diameters; average particle diameter ([3]; DPPC vesicle, 20 mol % modifier (Example 8 series)): 36±10 nm
4 | CCCCCCCCCCCCCCCCCCNC(=O)[C@H](O)[C@@H](O)[C@H](O)[C@H](O)CO[C@H]1O[C@H](CO[C@H]2O[C@H](CO[C@H]3O[C@H](CO[C@H]4O[C@H](CO[C@H]5O[C@H](CO)[C@@H](O)[C@H](O)[C@H]5O)[C@@H](O)[C@H](O)[C@H]4O)[C@@H](O)[C@H](O)[C@H]3O)[C@@H](O)[C@H](O)[C@H]2O)[C@@H](O)[C@H](O)[C@H]1O [IHSA, Isomaltohexose stearylamide] | not changed at all |  |  |  |  |  |  |  | inhibition of aggregation of vesicles by calcium ion (in words) [1]: inhibited nearly completely; viscosity of the dispersion with calcium ion ([1]; Vismetron VS-AK): 5 cp; average particle diameter [3, 10]: 200 nm
5 | CCCCCCCCCCCCCCCCNC(=O)[C@H](O)[C@@H](O)[C@H](O[C@H]1O[C@H](CO)[C@@H](O[C@H]2O[C@H](CO)[C@@H](O[C@H]3O[C@H](CO)[C@@H](O[C@H]4O[C@H](CO)[C@@H](O)[C@H](O)[C@H]4O)[C@H](O)[C@H]3O)[C@H](O)[C@H]2O)[C@H](O)[C@H]1O)[C@H](O)CO [MPCA, maltopentaose cetyl amide] |  | 6.3% | 12.7% | 32±9 nm | 32±7 nm |  |  |  | turbidity increase rate relative to unmodified DPPC vesicle dispersion (100%) ([2]; Table 2 / Example 8 series, 5 mol % modifier, listed as MCPA): 10.3%; turbidity rise / aggregation inhibiting effect (in words) ([2]; about 5 mol % modifier): little rise in turbidity
6 | Dioctadecylmaltopentaosyl glycerol [DOMPG] |  |  |  |  |  | 12.1% | 70.9% | 83.2% | introduction ratio in comparison with DOMG (in words) [5]: low in comparison with that of DOMG
7 | CCCCCCCCCCCCCCCCCCOCC(COC1O[C@H](CO)[C@@H](O[C@H]2O[C@H](CO)[C@@H](O)[C@H](O)[C@H]2O)[C@H](O)[C@H]1O)OCCCCCCCCCCCCCCCCCC (stereo partly drawn) [DOMG, 1,2-di-octadecyl-O-α(β)-maltosyl-glycerol] |  |  |  |  |  | 45.5% | 77.0% | 94.3% | particle diameter ([3]; DPPC vesicle, about 5 mol % modifier, extruder 0.05 μm (Example 11)): 35±15 nm; increase of the turbidity depending on amount of modifier (order) ([4]; 5-20 mol %): 5 mol %>10 mol %>15 mol %>20; vesicle stabilization effect (in words) ([4]; 5 mol % modifier, 24 hours): not so effective; turbidity increase rate relative to unmodified DPPC vesicle dispersion (100%) ([4]; 10 mol % modifier, 24 hours): 28.9%; turbidity increase rate relative to unmodified DPPC vesicle dispersion (100%) ([4]; 15 mol % modifier, 24 hours): 16.0%; turbidity increase rate relative to unmodified DPPC vesicle dispersion (100%) ([4]; 20 mol % modifier, 24 hours): 11.2%
8 | CCCCCCCC/C=C\CCCCCCCCNC(=O)[C@H](NC(C)=O)[C@@H](O)[C@H](O[C@@H]1O[C@H](CO)[C@@H](O)[C@H](O)[C@H]1NC(C)=O)[C@H](O)CO [DACOA, di-N-acetylchitobiose oleylamine] | not changed |  |  |  |  |  |  |  | viscosity of the dispersion with calcium ion ([1]; Vismetron VS-AK): 5 cp; average particle diameter [3, 10]: 200 nm
9 | Maltopentaose dipalmitate [MPDP, reference compound] |  | 65.4% |  |  | 38±8 nm |  |  |  | 
